Data on three compounds can be found in patent US9913832B2, “Accelerating thrombus resolution through augmentation of p53 activity” (priority 2009, dated 2018).

The test system of experiment [1] is normal (wildtype) mice. The experiment in a line: mouse model of thrombus resolution (vena caval ligation), normal mice. In kind it is in vivo. The note with it: 25 mg/kg body weight by daily injection, versus saline, FIG. 8. The source says:
In an effort to develop pharmacological and molecular therapy to accelerate thrombus resolution, the function of the p53 gene was studied in an in vivo model of thrombus resolution. In this mouse model (vena caval ligation) the thrombus shrinks between day 4 and day 12 by about 50% as defined by change in thrombus weight. It was noted that the expression of the p53 protein is increased in thrombus resolution.
In order to determine whether augmentation of normal p53 function could accelerate thombus resolution wildtype mice were treated with the p53 activator quinacrine (25 mg/kg body weight, by daily injection). Quinacrine is known to increase p53 levels by stabilizing the p53 protein and preventing its normal degradation inside cells.
(§1) The well-established rodent model of thrombus resolution was used to define a role for the p53 gene in this process. In this model, a mouse is anesthetized, the abdomen is opened with standard sterile surgical technique and the vena cava (the largest abdominal vein) is ligated in the abdomen with a suture immediately below the level of the renal veins.
The weight of the thrombus decreases with time, and this change in weight reflects the thrombus resolution process in this model. […]

In experiment [2] the test system is mice lacking the p53 gene. The experiment in a line: mouse model of thrombus resolution (vena caval ligation), mice lacking the p53 gene. The following applies: quinacrine versus control, FIG. 9, last two columns. In kind it is in vivo.
Text: To determine whether the beneficial effect on thrombus resolution of quinacrine was due to activation of the p53 gene and not some other unknown effect of quinacrine on thrombus resolution the quinacrine experiment was repeated in mice that lack p53 (FIG. 2).
as §1
To determine if pharmacologic activation of the p53 gene beyond its usual activation by thrombus resolution might accelerate thrombus resolution, normal mice were treated with the p53 activator quinacrine (25 mg/kg body weight, by daily injection) or saline as a control, and then subjected to vena caval ligation as described above. […] To determine if this effect of quinacrine was actually due to p53 activation, this experiment was repeated in animals lacking the p53 gene.

In experiment [3] the test system is experimental thrombi. The following applies: literature studies of exogenous therapy on formed or established thrombus; cited from earlier work.

“Also recorded” adds a separate entry of the source.

Regarding `CCN(CC)CCCC(C)Nc1c2ccc(Cl)cc2nc2ccc(OC)cc12` (stereo not shown) [quinacrine], in experiment [1], the “thrombus resolution as determined by thrombus weight on day 12” value is given as “improved thrombus resolution; also recorded: decreased thrombus weight”. Further, in experiment [2], the “thrombus resolution / thrombus size at day 12” value is reported as “absent; also recorded: no difference in thrombus size”.
Take “MCP-1: cytokine macrophage chemotactic factor”: in experiment [3], the “thrombus resolution in experimental animal models” value is on record as “does improve experimental thrombus resolution”.
low molecular weight heparin: the “thrombus resolution in experimental animal models” value in experiment [3] is recorded as “no improvement in the resolution of an established thrombus”.
